# Laboratory results: patent US9879032B2, “Pyridine compounds” (Daiichi Sankyo Company, Limited, priority 2015, dated 2018)
# Molecular target: human TNAP (Homo sapiens (Human), UniProt P05186)
# Experiment: Inhibitory test of TNAP activity (pNPP substrate, p-nitrophenol production)
# Assay type: biochemical
# Conditions: inhibition of human TNAP activity, incubated at room temperature for 60 minutes
# Description: COS 1 cells (DS Pharma Biomedical Co., Ltd.) were transfected with human TNAP (OriGene Technologies, Inc.) using Lipofectamine LTX & Plus reagent (Invitrogen Corp.). On the next day, the medium was replaced with a fresh medium, and the cells were cultured in an incubator for 3 days. After 3 days, the culture supernatant was collected and concentrated by centrifugation at 5000 G for 30 minutes using Amicon 14, 10^4 cut (Merck Millipore). The concentrated culture supernatant was dialyzed against 5 L of 50 mM Tris/200 mM NaCl/1 mM MgCl2/20 μM ZnCl2 twice and used as an enzyme source (enzyme solution). The substrate pNPP (ProteoChem Inc.) was adjusted to 3.1 mM with Milli-Q water, and a solution of each test compound dissolved in dimethyl sulfoxide (DMSO; Wako Pure Chemical Industries, Ltd.) by 6 serial dilutions at a 5-fold common ratio from 100 μM, or DMSO was added thereto at a final concentration of 1% by volume. The enzyme solution adjusted to 2 μg/mL with an assay buffer (200 mM Tris/2 mM MgCl2/0.04 mM ZnCl2/0.01% Tween 20) was added in the same amount of the substrate solution and incubated at room temperature for 60 minutes. Then, the absorbance (ABS: 405 nm) was measured using a microplate reader (model plus 384, Molecular Devices, LLC), and the concentration of produced p-nitrophenol was calculated.
# human TNAP, sequence (P05186 18-502): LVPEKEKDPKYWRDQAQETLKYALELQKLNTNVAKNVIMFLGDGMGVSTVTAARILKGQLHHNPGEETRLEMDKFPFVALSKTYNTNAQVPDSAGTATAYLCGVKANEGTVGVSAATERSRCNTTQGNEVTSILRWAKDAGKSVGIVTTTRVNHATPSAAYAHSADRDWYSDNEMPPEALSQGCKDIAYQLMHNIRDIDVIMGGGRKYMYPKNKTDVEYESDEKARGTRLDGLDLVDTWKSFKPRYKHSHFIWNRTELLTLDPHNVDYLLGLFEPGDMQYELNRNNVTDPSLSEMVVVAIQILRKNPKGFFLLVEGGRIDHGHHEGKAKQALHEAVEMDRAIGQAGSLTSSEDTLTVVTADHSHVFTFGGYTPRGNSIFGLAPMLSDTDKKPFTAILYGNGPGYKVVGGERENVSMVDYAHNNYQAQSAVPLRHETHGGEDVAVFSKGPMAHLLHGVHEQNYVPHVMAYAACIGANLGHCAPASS
row,SMILES,IC50 [nM]
1,"COc1ccc(Cl)cc1S(=O)(=O)Nc1cnc2c(c1)C(=O)N(C)CCO2 [Example 1, 5-Chloro-2-methoxy-N-(4-methyl-5-oxo-2,3,4,5-tetrahydropyrido[3,2-f][1,4]oxazepin-7-yl)benzenesulfonamide]",6.3
2,"COc1ccc(F)cc1S(=O)(=O)Nc1cnc2c(c1)C(=O)N(C)CCO2 [Example 2, 5-Fluoro-2-methoxy-N-(4-methyl-5-oxo-2,3,4,5-tetrahydropyrido[3,2-f][1,4]oxazepin-7-yl)benzenesulfonamide]",12.7
3,"CCN1CCOc2ncc(NS(=O)(=O)c3cc(Cl)ccc3OC)cc2C1=O [Example 3, 5-Chloro-N-(4-ethyl-5-oxo-2,3,4,5-tetrahydropyrido[3,2-f][1,4]oxazepin-7-yl)-2-methoxybenzenesulfonamide]",12.8
4,"CCN1CCOc2ncc(NS(=O)(=O)c3cc(F)ccc3OC)cc2C1=O [Example 4, N-(4-Ethyl-5-oxo-2,3,4,5-tetrahydropyrido[3,2-f][1,4]oxazepin-7-yl)-5-fluoro-2-methoxybenzenesulfonamide]",22.9
5,"COc1ccc(Cl)cc1S(=O)(=O)Nc1cnc2c(c1)C(=O)N(C(C)C)CCO2 [Example 5, 5-Chloro-2-methoxy-N-[5-oxo-4-(propan-2-yl)-2,3,4,5-tetrahydropyrido[3,2-f][1,4]oxazepin-7-yl]benzenesulfonamide]",71.3
6,"COc1ccc(Cl)cc1S(=O)(=O)Nc1cnc2c(c1)C(=O)N(CCO)CCO2 [Example 6, 5-Chloro-N-[4-(2-hydroxyethyl)-5-oxo-2,3,4,5-tetrahydropyrido[3,2-f][1,4]oxazepin-7-yl]-2-methoxybenzenesulfonamide]",6.1
7,"COCCN1CCOc2ncc(NS(=O)(=O)c3cc(Cl)ccc3OC)cc2C1=O [Example 7, 5-Chloro-2-methoxy-N-[4-(2-methoxyethyl)-5-oxo-2,3,4,5-tetrahydropyrido[3,2-f][1,4]oxazepin-7-yl]benzenesulfonamide]",10.7
8,"COc1ccc(CN2CCOc3ncc(NS(=O)(=O)c4cc(Cl)ccc4OC)cc3C2=O)c(OC)c1 [Example 8, 5-Chloro-N-[4-(2,4-dimethoxybenzyl)-5-oxo-2,3,4,5-tetrahydropyrido[3,2-f][1,4]oxazepin-7-yl]-2-methoxybenzenesulfonamide]",9.1
9,"COc1ccc(Cl)cc1S(=O)(=O)Nc1cnc2c(c1)C(=O)NCCO2 [Example 9, 5-Chloro-2-methoxy-N-(5-oxo-2,3,4,5-tetrahydropyrido[3,2-f][1,4]oxazepin-7-yl)benzenesulfonamide]",1.4
10,"COc1ccc(F)cc1S(=O)(=O)Nc1cnc2c(c1)C(=O)NCCO2 [Example 10, 5-Fluoro-2-methoxy-N-(5-oxo-2,3,4,5-tetrahydropyrido[3,2-f][1,4]oxazepin-7-yl)benzenesulfonamide]",4
11,"COc1ccc(OC)c(S(=O)(=O)Nc2cnc3c(c2)C(=O)NCCO3)c1 [Example 11, 2,5-Dimethoxy-N-(5-oxo-2,3,4,5-tetrahydropyrido[3,2-f][1,4]oxazepin-7-yl)benzenesulfonamide]",4.8
12,"COc1ccccc1S(=O)(=O)Nc1cnc2c(c1)C(=O)NCCO2 [Example 12, 2-Methoxy-N-(5-oxo-2,3,4,5-tetrahydropyrido[3,2-f][1,4]oxazepin-7-yl)benzenesulfonamide]",13.4
13,"O=C1NCCOc2ncc(NS(=O)(=O)c3cc(Cl)ccc3OC(F)(F)F)cc21 [Example 13, 5-Chloro-N-(5-oxo-2,3,4,5-tetrahydropyrido[3,2-f][1,4]oxazepin-7-yl)-2-(trifluoromethoxy)benzenesulfonamide]",3.4
14,"COc1ccc(Cl)cc1S(=O)(=O)Nc1cnc2c(c1)C(=O)N(C)CC(C)O2 (centres unmarked) [Example 14, 5-Chloro-N-(2,4-dimethyl-5-oxo-2,3,4,5-tetrahydropyrido[3,2-f][1,4]oxazepin-7-yl)-2-methoxybenzenesulfonamide]",36.2
15,"COc1ccc(F)cc1S(=O)(=O)Nc1cnc2c(c1)C(=O)N(C)CC(C)O2 (centres unmarked) [Example 15, N-(2,4-Dimethyl-5-oxo-2,3,4,5-tetrahydropyrido[3,2-f][1,4]oxazepin-7-yl)-5-fluoro-2-methoxybenzenesulfonamide]",95.7
16,"COc1ccc(Cl)cc1S(=O)(=O)Nc1cnc2c(c1)C(=O)N(C)C(C)CO2 (centres unmarked) [Example 16, 5-Chloro-N-(3,4-dimethyl-5-oxo-2,3,4,5-tetrahydropyrido[3,2-f][1,4]oxazepin-7-yl)-2-methoxybenzenesulfonamide]",6.2

row,SMILES,IC50 [nM]
1,"COc1ccc(F)cc1S(=O)(=O)Nc1cnc2c(c1)C(=O)N(C)C(C)CO2 (centres unmarked) [Example 17, N-(3,4-Dimethyl-5-oxo-2,3,4,5-tetrahydropyrido[3,2-f][1,4]oxazepin-7-yl)-5-fluoro-2-methoxybenzenesulfonamide]",12.6
2,"COc1ccc(Cl)cc1S(=O)(=O)Nc1cnc2c(c1)C(=O)N(C)[C@@H](C)CO2 [Example 18, 5-Chloro-N-[(3S)-3,4-dimethyl-5-oxo-2,3,4,5-tetrahydropyrido[3,2-f][1,4]oxazepin-7-yl]-2-methoxybenzenesulfonamide]",3.9
3,"COc1ccc(F)cc1S(=O)(=O)Nc1cnc2c(c1)C(=O)N(C)[C@@H](C)CO2 [Example 19, N-[(3S)-3,4-Dimethyl-5-oxo-2,3,4,5-tetrahydropyrido[3,2-f][1,4]oxazepin-7-yl]-5-fluoro-2-methoxybenzenesulfonamide]",6.4
4,"COc1ccc(Cl)cc1S(=O)(=O)Nc1cnc2c(c1)C(=O)N(C)[C@H](C)CO2 [Example 20, 5-Chloro-N-[(3R)-3,4-dimethyl-5-oxo-2,3,4,5-tetrahydropyrido[3,2-f][1,4]oxazepin-7-yl]-2-methoxybenzenesulfonamide]",27.1
5,"COc1ccc(F)cc1S(=O)(=O)Nc1cnc2c(c1)C(=O)N(C)[C@H](C)CO2 [Example 21, N-[(3R)-3,4-Dimethyl-5-oxo-2,3,4,5-tetrahydropyrido[3,2-f][1,4]oxazepin-7-yl]-5-fluoro-2-methoxybenzenesulfonamide]",46
6,"COc1ccc(Cl)cc1S(=O)(=O)Nc1cnc2c(c1)C(=O)N[C@@H](C)CO2 [Example 22, 5-Chloro-2-methoxy-N-[(3S)-3-methyl-5-oxo-2,3,4,5-tetrahydropyrido[3,2-f][1,4]oxazepin-7-yl]benzenesulfonamide]",1.7
7,"COc1ccc(F)cc1S(=O)(=O)Nc1cnc2c(c1)C(=O)N[C@@H](C)CO2 [Example 23, 5-Fluoro-2-methoxy-N-[(3S)-3-methyl-5-oxo-2,3,4,5-tetrahydropyrido[3,2-f][1,4]oxazepin-7-yl]benzenesulfonamide]",3.5
8,"CC[C@H]1COc2ncc(NS(=O)(=O)c3cc(Cl)ccc3OC)cc2C(=O)N1C [Example 24, 5-Chloro-N-[(3S)-3-ethyl-4-methyl-5-oxo-2,3,4,5-tetrahydropyrido[3,2-f][1,4]oxazepin-7-yl]-2-methoxybenzenesulfonamide]",7.2
9,"CC[C@H]1COc2ncc(NS(=O)(=O)c3cc(Cl)ccc3OC)cc2C(=O)N1 [Example 25, 5-Chloro-N-[(3S)-3-ethyl-5-oxo-2,3,4,5-tetrahydropyrido[3,2-f][1,4]oxazepin-7-yl]-2-methoxybenzenesulfonamide]",1.7
10,"COc1ccc(Cl)cc1S(=O)(=O)Nc1cnc2c(c1)C(=O)N[C@@H](C(C)C)CO2 [Example 26, 5-Chloro-2-methoxy-N-[(3S)-5-oxo-3-(propan-2-yl)-2,3,4,5-tetrahydropyrido[3,2-f][1,4]oxazepin-7-yl]benzenesulfonamide]",8.7
11,"COc1ccc(Cl)cc1S(=O)(=O)Nc1cnc2c(c1)C(=O)N[C@@H](CO)CO2 [Example 27, 5-Chloro-N-[(3S)-3-(hydroxymethyl)-5-oxo-2,3,4,5-tetrahydropyrido[3,2-f][1,4]oxazepin-7-yl]-2-methoxybenzenesulfonamide]",1.5
12,"COc1ccc(F)cc1S(=O)(=O)Nc1cnc2c(c1)C(=O)N[C@@H](CO)CO2 [Example 28, 5-Fluoro-N-[(3S)-3-(hydroxymethyl)-5-oxo-2,3,4,5-tetrahydropyrido[3,2-f][1,4]oxazepin-7-yl]-2-methoxybenzenesulfonamide]",3.6
13,"COc1ccc(Br)cc1S(=O)(=O)Nc1cnc2c(c1)C(=O)N[C@@H](CO)CO2 [Example 29, 5-Bromo-N-[(3S)-3-(hydroxymethyl)-5-oxo-2,3,4,5-tetrahydropyrido[3,2-f][1,4]oxazepin-7-yl]-2-methoxybenzenesulfonamide]",1.2
14,"COc1ccc(OC)c(S(=O)(=O)Nc2cnc3c(c2)C(=O)N[C@@H](CO)CO3)c1 [Example 30, N-[(3S)-3-(Hydroxymethyl)-5-oxo-2,3,4,5-tetrahydropyrido[3,2-f][1,4]oxazepin-7-yl]-2,5-dimethoxybenzenesulfonamide]",3.8
15,"O=C1N[C@@H](CO)COc2ncc(NS(=O)(=O)c3cc(Cl)ccc3OC(F)(F)F)cc21 [Example 31, 5-Chloro-N-[(3S)-3-(hydroxymethyl)-5-oxo-2,3,4,5-tetrahydropyrido[3,2-f][1,4]oxazepin-7-yl]-2-(trifluoromethoxy)benzenesulfonamide]",1.6
16,"O=C1N[C@@H](CO)COc2ncc(NS(=O)(=O)c3cc(F)ccc3OC(F)(F)F)cc21 [Example 32, 5-Fluoro-N-[(3S)-3-(hydroxymethyl)-5-oxo-2,3,4,5-tetrahydropyrido[3,2-f][1,4]oxazepin-7-yl]-2-(trifluoromethoxy)benzenesulfonamide]",4.1
